Reference: US8008542B2, “Compositions, cells, and plants that include BKI1, a negative regulator of BRI1-mediated BR signaling” (The Salk Institute for Biological Studies, priority 2007, dated 2011)

Tests used:
[1] = system: BES1; experiment: BES1 phosphorylation status by immunoblot with anti-BES1; format: in vivo, Arabidopsis
Description: To determine whether the growth inhibitory effect caused by the over-expression of BKI1-YFP was due to an inhibition of BRI1 signaling, we tested the phosphorylation status of a downstream biochemical marker, BES1 (10), by immunoblot analysis.
Seedlings were grown in short day photoperiods for seven days. At least ten short-day grown seedlings were measured. In FIGS. 2A-B the pBKI1::GUS line was used as a control (control). RNAi-2 and RNAi-7 were two independent RNAi knockdown lines for BKI1. In FIG. 2 C-E, phenotype of plants overexpressing BKI1-FLAG, with Col-0 (left) and a BKI1-FLAG line (right) are shown. 2C. Short-day grown seedlings. 2D. Long-day grown seedlings. 2E. Long-day grown adult plants. In FIG. 2F, leaf morphology of seedlings grown in short days. Col-0 (right) and a BKI1-FLAG line (left) are shown. In FIG. 2G, over-expression of BKI1-YFP leads to a reduced response (hypocotyl length) to BL. At least twenty short-day grown seedlings were measured. In FIG. 2H, over-expression of BKI1-YFP leads to an enhanced response to BRZ220. At least twenty dark-grown seedlings were measured. In FIG. 2I, over-expression of BKI1-YFP results in reduced accumulation of dephosphorylated BES1. Immunoblots with anti-BES1 show levels of phosphorylated BES1 (pBES1) and dephosphorylated BES1. Bottom band: loading control. In FIG. 2J, Over-expression of BKI1-YFP alters the expression of BR-regulated genes. […]

[2] = system: Arabidopsis seedlings; experiment: Hypocotyl length response to BL, short-day grown seedlings; format: in vivo
[3] = system: Saur-AC1; experiment: qRT-PCR of brassinosteroid-regulated gene Saur-AC1; format: in vivo, Arabidopsis; conditions: Plus BL (100 nM, 2.5 hrs)
Description: (§1) Plants were treated with 100 nM BL, or a mock treatment for 2.5 hrs. Total RNA was extracted using a Qiagen RNAeasy kit (Valencia, Calif.), and the first strand cDNA was synthesized using Invitrogen Superscript III First-Strand cDNA Synthesis kit. cDNAs were combined with SYBR master mix for PCR. Primers for each gene are shown as follows. CPD (At5g05690): 5′-TTACCGCAAAGCCATCCAA-3′ (SEQ ID NO:10) and 5′-[…]-3′ (SEQ ID NO:11); DWF4 (At3g50660): 5′-[…]-3′ (SEQ ID NO:12) and 5′-[…]-3′ (SEQ ID NO:13); Saur-AC1 (At4g38850): 5′-[…]-3′ (SEQ ID NO:14) and 5′-[…]-3′ (SEQ ID NO:15); and BKI1: 5′-GCTCCGGCGTCGATGA-3′ (SEQ ID NO:16) and 5′-[…]-3′ (SEQ ID NO:17). A U-box gene (At5g15400) was used to normalize the data (5′-[…]-3′ (SEQ ID NO:18) and 5′-TGCTGCCCAACATCAGGTT-3′ (SEQ ID NO:19)). PCR reactions were performed in triplicate or quadruplicate with a Bio-Rad iCycler, and the data were collected and analyzed with Bio-Rad MyiQ Single-Color Real-Time PCR Detection System.

[4] = system: CPD; experiment: qRT-PCR of brassinosteroid-regulated gene CPD; format: in vivo, Arabidopsis; conditions: 100 nM BL for 2.5 hrs
Description: as §1

[5] = system: plasma membrane-association of BKI1-YFP; experiment: Subcellular localization of BKI1-YFP in root tip cells (confocal); format: cell-based, Arabidopsis; conditions: for plasma membrane-association of BKI1-YFP following BL treatment: wild-type background, grown on 1 μM BRZ220, treated with 1 μM BL
Description: To investigate where in the pathway BKI1 acts, we examined the subcellular localization of the BKI1-YFP fusion protein in plants. BKI1-YFP was localized to both the plasma membrane and the cytosol in root tip cells (FIG. 3A). When the BKI1-YFP line was grown on medium containing 1 μM BRZ220, which reduces the levels of endogenous brassinosteroids (22), the fluorescent signal on the cell surface was enhanced (FIG. 3B).
In FIG. 3A, BKI1-YFP is localized to the plasma membrane and cytosol on MS medium. In FIG. 3B, BRZ220 enhances the association of BKI1-YFP to the plasma membrane. Seedlings were grown on MS medium containing 1 μM BRZ220. In FIG. 3C, BL enhances BKI1-YFP dissociation from the plasma membrane. Seedlings were grown on MS medium containing 1 μM BL. […] Seedlings were grown on MS medium containing 1 μM of BRZ220 and treated with 1 μM BL. J-L. BKI1-YFP is associated with the plasma membrane in bri1-116. Seedlings were grown on MS medium containing 1 μM of BRZ220. bri1-116 is a null allele of BRI1 (19). […] Seedlings were grown on MS medium containing 1 μM BL. […] Seedlings were grown on MS medium containing 1 μM BRZ220. 3D, G, J, M, and P are untreated; E, H, K, N, and Q are treated with BL for 5 min, and F, I, L, O, and R are treated with BL for 10 min.
Seedlings were grown on MS medium containing 1 μM of BRZ220. The time of BL treatment is indicated. Top panels: BKI1-YFP; Lower panels: myriBKI1-YFP. […] Immunoblots with anti-GFP show levels of myriBKI1-YFP and BKI1-YFP. Bottom band: loading control. […] The total ^35S-Met labeled BRI1-KD-HIS co-precipitated by GST-BAK1-KD was defined as “1”. Five replicates were conducted. Error bars indicate standard error. 1, GST-BAK1-KD±35S-BRI1-KD-HIS; 2, GST-BAK1-KD+35S-BRI1-KD-HIS+10 μM of MBP; 3, GST-BAK1-KD+35S-BRI1-KD-HIS+10 μM of MBP-BKI1. […] Without BL, BRI1 kinase is kept in a basal state by both its own carboxyl terminal domain and by an interaction with BKI1. Brassinosteroid binding to the extracellular domain of BRI1 induces a conformational change of the kinase domain, leading to the phosphorylation of the C-terminal domain of BRI1 and BKI1, the dissociation of BKI1 from the plasma membrane, and the release of autoinhibition of BRI1. These events lead to the full activation of BRI1 and its association with BAK1 or other substrates. Plasma membrane-dissociated BKI1 may also regulate other unknown components in the brassinosteroid signaling cascade. BSU1 is a nuclear serine/threonine phosphatase involved in the dephosphorylation of BES1 (27).
The predicted full-length BKI1 was amplified by RT-PCR from total RNA of Col-0 using Pfu DNA polymerase (Stratagene), and cloned into the binary vector pCHF3 that contains a 35S promoter (10), three copies of FLAG ([…], SEQ ID NO:8) fused at the Cterminal end, and the RubisCo small subunit (rbcS) terminator. For the YFP fusion construct, full length BKI1 was cloned into a modified pCHF3 containing a 35S promoter and a C-terminal YFP tag. For the myriBKI1-YFP construct, a myristoylation site (MGICMSR, SEQ ID NO:9) was added to the N-terminus of BKI1-YFP via PCR. All constructs were confirmed by sequencing and transformed into Col-0 plants. The subcellular localization of BKI1-YFP and myriBKI1-YFP was visualized and photographed using a Leica TCS SP2 confocal microscope (Leica Microsystems, Germany).

[6] = system: DWF4; experiment: qRT-PCR of brassinosteroid-regulated gene DWF4; format: in vivo, Arabidopsis; conditions: 100 nM BL for 2.5 hrs
Description: as §1

[7] = target: T1, kinase domain of BAK1 (BAK1-KD) in pDBLeu (GAL4-DB fusion) (UniProt P04386 1-147; Q94F62 247-615, limits assumed); experiment: yeast two-hybrid
T1 construct: domain: GAL4-DB;domain: kinase domain; Yeast two-hybrid bait

[8] = target: T2, kinase domain of NIK1 (NIK1-KD) in pDBLeu (GAL4-DB fusion) (UniProt P04386 1-147; Q9LFS4 270-638, limits assumed); experiment: yeast two-hybrid
T2 construct: domain: GAL4-DB;domain: kinase domain; Yeast two-hybrid bait

[9] = target: full-length BIN2 in pDBLeu (GAL4-DB fusion) (UniProt P04386 1-147; Q39011 1-380); experiment: yeast two-hybrid
[10] = target: T3, BRL3 kinase domain (BRL3-KD) fused with GAL4-DB (in pDBLeu) (UniProt P04386 1-147; Q9LJF3 794-1164, limits assumed); experiment: yeast two-hybrid
T3 construct: domain: GAL4-DB;domain: kinase domain; Yeast two-hybrid bait

[11] = target: T4, CLV1 kinase domain (CLV1-KD) fused with GAL4-DB (in pDBLeu) (UniProt P04386 1-147; Q9SYQ8 660-980, limits assumed); experiment: yeast two-hybrid
T4 construct: domain: GAL4-DB;domain: kinase domain; Yeast two-hybrid bait

[12] = target: full length TTL in pDBLeu (GAL4-DB fusion) (Arabidopsis, UniProt P04386 1-147; Q9LVM5 1-324, limits assumed); experiment: yeast two-hybrid
[13] = target: T5, BRL1 kinase domain (BRL1-KD) fused with GAL4-DB (in pDBLeu) (UniProt P04386 1-147; Q9ZWC8 798-1166, limits assumed); experiment: yeast two-hybrid
T5 construct: domain: GAL4-DB;domain: kinase domain; Yeast two-hybrid bait

Molecule: CC(C)[C@H](C)[C@@H](O)[C@H](O)[C@@H](C)[C@H]1CC[C@H]2[C@@H]3COC(=O)[C@H]4C[C@H](O)[C@H](O)C[C@]4(C)[C@H]3CC[C@]12C [BL, brassinolide]
- accumulation of dephosphorylated BES1 ([1]; det2-1, 0.1 μM BL for one hour): strongly stimulated
- accumulation of dephosphorylated BES1 ([1]; wild type, 0.1 μM BL for one hour): strongly stimulated
- response to BL treatment (hypocotyl length) ([2]; det2-1 brassinosteroid biosynthetic mutant): highly responsive
- sensitivity to BL applications compared to wild type (fold less sensitive) ([2]; plants over-expressing BKI1-YFP, hypocotyl length): at least 100 fold
- expression of Saur-AC1 (RNA level, WT without BL = 1.00) ([3]; BKI1-YFP line): 1.65±0.11
- expression of Saur-AC1 (RNA level, WT without BL = 1.00) ([3]; WT): 4.68±0.31
- expression of CPD (RNA level, WT without BL = 1.00) ([4]; BKI1-YFP line): 0.83±0.05
- expression of CPD (RNA level, WT without BL = 1.00) ([4]; WT): 0.47±0.03
- BL-induced dissociation of BKI1-YFP from the plasma membrane ([5]; bri1-104 (kinase inactive allele)): no BL-induced dissociation
- BL-induced dissociation of BKI1-YFP from the plasma membrane ([5]; bri1-116 homozygous seedlings (null allele)): failed to induce the dissociation
- plasma membrane-association of BKI1-YFP ([5]; grown on medium containing 1 μM BL): reduced
- plasma membrane-association of BKI1-YFP following BL treatment ([5]; 10 minutes): undetectable
- plasma membrane-association of BKI1-YFP following BL treatment ([5]; after 5 minutes): almost completely gone
- expression of DWF4 (RNA level, WT without BL = 1.00) ([6]; BKI1-YFP line): 0.80±0.06
- expression of DWF4 (RNA level, WT without BL = 1.00) ([6]; WT): 0.27±0.01

B1: BKI1 fused with GAL4-AD (BKI1-pEXAD502), full-length BKI1 (other, not shown: large carriers)
chain: METNLQQVKNSSQTFSEKQNPKQEASPSPISSTCSSPSHDFSFTISLQPLSSSSKHISPTLRSPSKTTSSYQQTDPFAVDLSPADEIFFHGHLLPLHLLSHLPVSPRTSTGSYNDGFTLPVKDILPDQPTNNNNNTENAITNISTEAKDDNTEDKAEGEIRVKTKPIKSFSLFGLSKWRKGFESNEREQEQQQQKIKKPMSLDLSHAVKKYIRMLFQKRGNGTQFWNRRQTSSYSFSSSLMGPNGNSKTMINGSYNKRDLIRGRRGELFSAPASMRTSPTNSGHLRVSTAGLSSSSGSTSSSSSDSTMEELQAAIQAAIAHCKNSSAVDRDDKVKDS
notes: Yeast two-hybrid prey; it is put N-terminal here; also called BKI1-FL; At5g42750
- binding result [7]: no binding
- binding result [8]: no binding
- binding result [9]: no binding
- binding result [10]: no binding
- binding result [11]: no binding
- binding result [12]: no binding
- binding result [13]: no binding
